Literature values, collected in patent US20210176995A1, “Disinfection Composition Comprising Tartaric Acid and Lactic Acid” (Wiping Systems ApS, priority 2016, published 2021).

System: Aspergillus b., Bacillus S., Cereus and Clostridium spores
Conditions: surfaces
For CCCCCCCCCC[N+](C)(C)CCCCCCCCCC.[Cl-] [DDAC], the “killing of Aspergillus b., Bacillus S., Cereus and Clostridium spores” value (“killing” for short) is listed as “can't be killed”.
For CCO [alcohol, ethanol], the “killing” value is given as “can't be killed”.
In the case of PHMB, the “killing” value is given as “can't be killed”.
